According to ChEMBL document CHEMBL1156829 (Proc Natl Acad Sci U S A, 2008):

Assays:
[1] = NOVARTIS: Cytotoxicity against human hepatocellular carcinoma cell line (Huh7); type: toxicity, cell-based, Huh-7; details: Huh7 cells (hepatocellular carcinoma cell line)
Plasmodium falciparum [2] = assay: NOVARTIS: Inhibition of Plasmodium falciparum 3D7 (drug-susceptible) proliferation in erythrocyte-based infection assay; type: functional, organism-based; details: Plasmodium falciparum, 3D7
Plasmodium falciparum [3] = assay: NOVARTIS: Inhibition of Plasmodium falciparum W2 (drug-resistant) proliferation in erythrocyte-based infection assay; type: functional, organism-based; details: Plasmodium falciparum, W2; read-out: EC50

For COc1ccc(C2=C(c3ccc(OC)cc3)C3(c4ccccc4)C(=O)C2(c2ccccc2)C2C(=O)N(c4ccc(C)c(Br)c4)C(=O)C23)cc1 (stereo unspecified), the CC50 [1] was over 10 µM, the EC50 (Plasmodium falciparum [2]) was 0.734 µM and the EC50 (Plasmodium falciparum [3]) was 0.901 µM.

In the case of CCCN(CCC)CCCNc1ccc(C(=O)Nc2cccc(OC)c2)cc1[N+](=O)[O-], the CC50 [1] is reported as 24 µM, the EC50 (Plasmodium falciparum [2]) is reported as 0.159 µM and the EC50 (Plasmodium falciparum [3]) is reported as 0.32 µM.

Molecule COC(=O)C1CCCCN1S(=O)(=O)c1ccc(C)cc1 (stereo unspecified) has a CC50 [1] of over 10 µM, an EC50 (Plasmodium falciparum [2]) of over 1.25 µM and an EC50 (Plasmodium falciparum [3]) of over 1.12 µM.

Molecule O=C(Nc1cnc2ccccc2c1)c1cccc(-n2cnnn2)c1 has a CC50 [1] of over 10 µM, an EC50 (Plasmodium falciparum [2]) of 0.174 µM and an EC50 (Plasmodium falciparum [3]) of 0.182 µM.

For O=[N+]([O-])c1ccc(NN=Cc2cccs2)c(S(=O)(=O)N2CCCCCC2)c1, the CC50 [1] was over 10 µM, the EC50 (Plasmodium falciparum [2]) was over 1.25 µM and the EC50 (Plasmodium falciparum [3]) was over 0.899 µM.

In the case of CN(CCCNc1ccnc2cc(Cl)ccc12)C(=O)/C=C/c1ccccc1, the CC50 [1] is reported as over 10 µM, the EC50 (Plasmodium falciparum [2]) is reported as 0.371 µM and the EC50 (Plasmodium falciparum [3]) is reported as 0.286 µM.

In the case of CCOC(=O)c1ccc2c(c1)[C@@H]1C=CC[C@@H]1[C@H](c1ccc(OC)c([N+](=O)[O-])c1)N2, the CC50 [1] is reported as over 100 µM, the EC50 (Plasmodium falciparum [2]) is reported as 0.39 µM and the EC50 (Plasmodium falciparum [3]) is reported as 0.376 µM.

Molecule Fc1ccc(-c2cn3c([n+]2-c2ccccc2)SCC3)cc1 has a CC50 [1] of over 100 µM, an EC50 (Plasmodium falciparum [2]) of 1.09 µM and an EC50 (Plasmodium falciparum [3]) of 0.713 µM.

CC(C)[C@@]1(NC(=O)[C@@H]2C[C@@H]3c4cccc5[nH]cc(c45)C[C@H]3N(C)C2)O[C@@]2(O)[C@@H]3CCCN3C(=O)[C@H](CC3CCCCC3)N2C1=O showed a CC50 [1] of over 11.4 µM, an EC50 (Plasmodium falciparum [2]) of 1.16 µM and an EC50 (Plasmodium falciparum [3]) of 0.768 µM.

Molecule COc1ccc2nc(C)cc(Nc3ccc(Oc4ccc(Br)c5ccccc45)c(Cl)c3)c2c1 has a CC50 [1] of 18.3 µM, an EC50 (Plasmodium falciparum [2]) of 1.11 µM and an EC50 (Plasmodium falciparum [3]) of 2.35 µM.

With NC(=S)NN=CC(=NNC(N)=S)c1ccccc1 the CC50 [1] was over 10 µM, the EC50 (Plasmodium falciparum [2]) was 0.0481 µM and the EC50 (Plasmodium falciparum [3]) was 0.0376 µM.

In the case of CC1C(Br)C(=O)C(Br)C(C)C12CCCC2 (stereo unspecified), the CC50 [1] is reported as over 10 µM, the EC50 (Plasmodium falciparum [2]) is reported as over 1.25 µM and the EC50 (Plasmodium falciparum [3]) is reported as over 0.871 µM.

Clc1ccccc1Nc1nc2nonc2nc1Nc1cccc(Br)c1 showed a CC50 [1] of over 10 µM, an EC50 (Plasmodium falciparum [2]) of over 1.25 µM and an EC50 (Plasmodium falciparum [3]) of over 0.678 µM.

Molecule COc1ccc(-n2nc(C(=O)NCCC3=CCCCC3)c3ccccc3c2=O)cc1 has a CC50 [1] of over 100 µM, an EC50 (Plasmodium falciparum [2]) of 7.22 µM and an EC50 (Plasmodium falciparum [3]) of over 9.81 µM.

With CCN1CCN(Cc2ccc(-c3cc4c(N[C@H](C)c5ccccc5)ncnc4[nH]3)cc2)CC1 [AEE-788] the CC50 [1] was 27.8 µM, the EC50 (Plasmodium falciparum [2]) was 1.38 µM and the EC50 (Plasmodium falciparum [3]) was 0.0285 µM.

Molecule COc1ccccc1NC(=O)c1n[nH]c(=O)c2ccccc12 has a CC50 [1] of over 10 µM, an EC50 (Plasmodium falciparum [2]) of over 1.06 µM and an EC50 (Plasmodium falciparum [3]) of over 1.25 µM.

Work on CCCCCCC1CCC(O)(C(C)(O)C(=O)NC2C(=O)N3NCCCC3C(=O)N(O)C(COC)C(=O)NCC(=O)N3NCCCC3C(=O)N(O)C(C)C(=O)OC2C)OC1C (stereo unspecified) yielded a CC50 [1] of 0.197 µM, an EC50 (Plasmodium falciparum [2]) of 0.219 µM and an EC50 (Plasmodium falciparum [3]) of 0.124 µM.

Work on CCCNc1nc(OC(C(F)(F)F)C(F)(F)F)nc(OC(C(F)(F)F)C(F)(F)F)n1 yielded a CC50 [1] of over 10 µM, an EC50 (Plasmodium falciparum [2]) of over 1.58 µM and an EC50 (Plasmodium falciparum [3]) of over 0.702 µM.

For CCOC(=O)C1=C(C)NC2=C(C(=O)CC(c3ccc(OC)c(OC)c3)C2)C1c1ccccc1C (stereo unspecified), the CC50 [1] was over 100 µM, the EC50 (Plasmodium falciparum [2]) was 0.134 µM and the EC50 (Plasmodium falciparum [3]) was 0.0274 µM.

With O=C(CSc1ccc2nnc(-c3cccs3)n2n1)Nc1ccc2c(c1)OCCO2 the CC50 [1] was over 100 µM, the EC50 (Plasmodium falciparum [2]) was 0.447 µM and the EC50 (Plasmodium falciparum [3]) was 0.573 µM.

In the case of CC(=O)Nc1ccc2c(c1)C(=O)N(C(C(=O)NCC(=O)O)C1CC1)[C@@H](CCC(=O)O)C(=O)N2 (stereo partly specified), the CC50 [1] is reported as over 10 µM, the EC50 (Plasmodium falciparum [2]) is reported as 1.26 µM and the EC50 (Plasmodium falciparum [3]) is reported as 0.28 µM.

CCOC(=O)C1=C(C)N/C(=C\c2cc(C)n(-c3ccc(C)cc3C)c2C)C1=O gave a CC50 [1] of over 10 µM, an EC50 (Plasmodium falciparum [2]) of over 1.25 µM and an EC50 (Plasmodium falciparum [3]) of 1.74 µM.

COc1cncc(-c2cncc(-c3ccc(Oc4ccccc4)cc3)n2)c1 showed a CC50 [1] of over 100 µM, an EC50 (Plasmodium falciparum [2]) of 0.0439 µM and an EC50 (Plasmodium falciparum [3]) of 0.0798 µM.

CCOc1ccc(N2C(=O)NC(=O)/C(=C\c3cn(C(C)=O)c4ccccc34)C2=O)cc1 showed a CC50 [1] of over 10 µM, an EC50 (Plasmodium falciparum [2]) of over 1.25 µM and an EC50 (Plasmodium falciparum [3]) of 1.86 µM.

With C(=NNc1nc2ccccc2[nH]1)c1ccccc1 the CC50 [1] was over 100 µM, the EC50 (Plasmodium falciparum [2]) was 0.587 µM and the EC50 (Plasmodium falciparum [3]) was 1.19 µM.

For COc1ccc(-c2cnnc(NN=Cc3ccc([N+](=O)[O-])o3)n2)cc1, the CC50 [1] was over 10 µM, the EC50 (Plasmodium falciparum [2]) was over 1.25 µM and the EC50 (Plasmodium falciparum [3]) was over 0.464 µM.

With CCn1ncc(CN2CCC(C(=O)Nc3ccccc3-c3cccc(OC)c3)CC2)c1C the CC50 [1] was 47.6 µM, the EC50 (Plasmodium falciparum [2]) was over 12.5 µM and the EC50 (Plasmodium falciparum [3]) was 1.16 µM.

Work on COc1ccc(C2CC(=O)C3=C(C2)NC(C)=C(C(=O)OC(C)C)C3c2ccccc2F)cc1OC (stereo unspecified) yielded a CC50 [1] of 7.32 µM, an EC50 (Plasmodium falciparum [2]) of 0.0347 µM and an EC50 (Plasmodium falciparum [3]) of 0.0332 µM.

For O=C1N(Cc2cc3ccccc3s2)CC2CN(Cc3ccsc3)CCN12 (stereo unspecified), the CC50 [1] was over 100 µM, the EC50 (Plasmodium falciparum [2]) was 0.107 µM and the EC50 (Plasmodium falciparum [3]) was 0.153 µM.

COc1ccc(C2CC(=O)C3=C(C2)NC(C)=C(C(=O)OC2CCCC2)C3c2ccc(Cl)cc2)cc1 (stereo unspecified) showed a CC50 [1] of over 100 µM, an EC50 (Plasmodium falciparum [2]) of 0.261 µM and an EC50 (Plasmodium falciparum [3]) of 0.125 µM.

Molecule O=C1C(=O)c2ncccc2-c2cccnc21 [PHANQUONE] has a CC50 [1] of 5.91 µM, an EC50 (Plasmodium falciparum [2]) of 0.644 µM and an EC50 (Plasmodium falciparum [3]) of 0.369 µM.

In the case of O=[N+]([O-])c1ccc(S(=O)(=O)N2CCN(C(=S)NCCc3ccccc3)CC2)cc1, the CC50 [1] is reported as over 100 µM, the EC50 (Plasmodium falciparum [2]) is reported as 0.0972 µM and the EC50 (Plasmodium falciparum [3]) is reported as 0.0971 µM.

CC(C)C(=O)NC(Nc1cccc([N+](=O)[O-])c1)C(Cl)(Cl)Cl (stereo unspecified) showed a CC50 [1] of over 100 µM, an EC50 (Plasmodium falciparum [2]) of 1.56 µM and an EC50 (Plasmodium falciparum [3]) of 1.2 µM.

For CCOC(=O)c1nnn(-c2nonc2N)c1-c1ccc(OC)cc1, the CC50 [1] was over 100 µM, the EC50 (Plasmodium falciparum [2]) was 0.653 µM and the EC50 (Plasmodium falciparum [3]) was 0.564 µM.

Molecule COc1cc(C=NNc2nc3ccccc3[nH]2)ccc1O has a CC50 [1] of 43.1 µM, an EC50 (Plasmodium falciparum [2]) of 0.205 µM and an EC50 (Plasmodium falciparum [3]) of 0.307 µM.

In the case of CS[C@H]1SC[C@H]2C(=O)N(C)[C@@H](C(C)C)C(=O)OC[C@@H](NC(=O)c3cnc4ccccc4n3)C(=O)N[C@@H](C)C(=O)N(C)[C@@H]1C(=O)N(C)[C@@H](C(C)C)C(=O)OC[C@@H](NC(=O)c1cnc3ccccc3n1)C(=O)N[C@@H](C)C(=O)N2C [ECHINOMYCIN], the CC50 [1] is reported as over 10 µM, the EC50 (Plasmodium falciparum [2]) is reported as 0.0737 µM and the EC50 (Plasmodium falciparum [3]) is reported as 0.524 µM.

In the case of CC(C)(C)CC(C)(C)c1ccc(OCC(=O)NN=C2C(=O)Nc3ccccc32)c([N+](=O)[O-])c1, the CC50 [1] is reported as over 10 µM, the EC50 (Plasmodium falciparum [2]) is reported as over 1 µM and the EC50 (Plasmodium falciparum [3]) is reported as 0.927 µM.

Work on CCOC(=O)CCC(=O)Oc1ccccc1-c1nc2cc(C)ccn2c1NC(C)(C)CC(C)(C)C yielded a CC50 [1] of over 10 µM, an EC50 (Plasmodium falciparum [2]) of 0.658 µM and an EC50 (Plasmodium falciparum [3]) of 0.0795 µM.

COc1ccc2nc(-c3ccccc3)cc(NCCN(C)C)c2c1 showed a CC50 [1] of over 10 µM, an EC50 (Plasmodium falciparum [2]) of 0.171 µM and an EC50 (Plasmodium falciparum [3]) of 0.478 µM.

Cc1ccc2c(Cl)c(C(=O)N3CC(C)OC(C)C3)sc2c1 (stereo unspecified) showed a CC50 [1] of over 100 µM, an EC50 (Plasmodium falciparum [2]) of 0.102 µM and an EC50 (Plasmodium falciparum [3]) of 0.072 µM.

In the case of Clc1ccc2[nH]c3c(NCCCN4CCOCC4)ncnc3c2c1, the CC50 [1] is reported as 31.2 µM, the EC50 (Plasmodium falciparum [2]) is reported as 0.109 µM and the EC50 (Plasmodium falciparum [3]) is reported as 0.152 µM.

CCCCN(CCCC)CCCNc1ncnc2c1[nH]c1ccc(Cl)cc12 gave a CC50 [1] of 61.8 µM, an EC50 (Plasmodium falciparum [2]) of 0.231 µM and an EC50 (Plasmodium falciparum [3]) of 0.162 µM.

O=C(NCC1CCCO1)c1cnc(NCCCn2ccnc2)nc1NCCc1ccccc1 (stereo unspecified) showed a CC50 [1] of over 10 µM, an EC50 (Plasmodium falciparum [2]) of 1.01 µM and an EC50 (Plasmodium falciparum [3]) of 0.0267 µM.

COc1cccc(OCC(=O)NN=C(C)CC(=O)NCc2ccco2)c1 gave a CC50 [1] of over 100 µM, an EC50 (Plasmodium falciparum [2]) of over 12.5 µM and an EC50 (Plasmodium falciparum [3]) of 0.901 µM.

With Cc1ccc(CNC(=O)C2CNCC2c2ccc(C(F)(F)F)cc2)cc1 (stereo unspecified) the CC50 [1] was over 10 µM, the EC50 (Plasmodium falciparum [2]) was 0.243 µM and the EC50 (Plasmodium falciparum [3]) was 0.121 µM.

Cc1ccc2c(c1)-c1c(ssc1=S)C(C)(C)N2C(=O)c1ccco1 gave a CC50 [1] of over 100 µM, an EC50 (Plasmodium falciparum [2]) of 0.276 µM and an EC50 (Plasmodium falciparum [3]) of 0.254 µM.

Cc1ccc(-n2c(-c3ccccc3)cc(C=NNC(=O)c3cccc(-n4c(C)ccc4C)c3)c2-c2ccccc2)cc1 gave a CC50 [1] of over 100 µM, an EC50 (Plasmodium falciparum [2]) of 0.867 µM and an EC50 (Plasmodium falciparum [3]) of 0.684 µM.
